Data from ChEMBL document CHEMBL3046559, “Sterile oat (Avena sterilis L.) cross-resistance profile to ACCase-inhibiting herbicides in Greece” (2012).

Assays:
Type in all cases: functional
[1] = tested on: Avena sterilis; experiment: Herbicidal activity against Avena sterilis accession P09 assessed as weed survival at 32 times field recommended herbicide dose
[2] = tested on: Avena sterilis; experiment: Herbicidal activity against Avena sterilis accession P09 assessed as weed survival at 16 times field recommended herbicide dose
[3] = tested on: Avena sterilis; experiment: Herbicidal activity against Avena sterilis accession P06S assessed as weed survival at 1/16 times field recommended herbicide dose
[4] = tested on: Avena sterilis; experiment: Herbicidal activity against Avena sterilis accession P20 assessed as weed survival at 4 times field recommended herbicide dose
[5] = tested on: Avena sterilis; experiment: Herbicidal activity against Avena sterilis accession P09 assessed as weed survival at 4 times field recommended herbicide dose
[6] = tested on: Avena sterilis; experiment: Herbicidal activity against Avena sterilis accession P02 assessed as induction of weed mortality
[7] = tested on: Avena sterilis; experiment: Herbicidal activity against Avena sterilis accession P18 assessed as weed survival at 32 times field recommended herbicide dose
[8] = tested on: Avena sterilis; experiment: Herbicidal activity against Avena sterilis accession P12 assessed as weed survival at 16 times field recommended herbicide dose
[9] = tested on: Avena sterilis; experiment: Herbicidal activity against Avena sterilis accession P03 assessed as weed survival at 4 times field recommended herbicide dose
[10] = tested on: Avena sterilis; experiment: Herbicidal activity against Avena sterilis accession P20 assessed as weed survival at 16 times field recommended herbicide dose
[11] = tested on: Avena sterilis; experiment: Herbicidal activity against Avena sterilis accession P19S assessed as induction of weed mortality
[12] = tested on: Avena sterilis; experiment: Herbicidal activity against Avena sterilis accession P05 assessed as weed survival at 4 times field recommended herbicide dose
[13] = tested on: Avena sterilis; experiment: Herbicidal activity against Avena sterilis accession P06S assessed as weed survival at 1 times field recommended herbicide dose
[14] = tested on: Avena sterilis; experiment: Herbicidal activity against Avena sterilis accession P13S assessed as weed survival at 1/32 times field recommended herbicide dose
[15] = tested on: Avena sterilis; experiment: Herbicidal activity against Avena sterilis accession P08 assessed as weed survival at 32 times field recommended herbicide dose
[16] = tested on: Avena sterilis; experiment: Herbicidal activity against Avena sterilis accession P14 assessed as weed survival at 16 times field recommended herbicide dose
[17] = tested on: Avena sterilis; experiment: Herbicidal activity against Avena sterilis accession P02 assessed as weed survival at 16 times field recommended herbicide dose
[18] = tested on: Avena sterilis; experiment: Herbicidal activity against Avena sterilis accession P21S assessed as weed survival at 1/32 times field recommended herbicide dose
[19] = tested on: Avena sterilis; experiment: Herbicidal activity against Avena sterilis accession P10S assessed as weed survival at 1/16 times field recommended herbicide dose
[20] = tested on: Avena sterilis; experiment: Herbicidal activity against Avena sterilis accession P03 assessed as weed survival at 1 times field recommended herbicide dose
[21] = tested on: Avena sterilis; experiment: Herbicidal activity against Avena sterilis accession P10S assessed as weed survival at 1/8 times field recommended herbicide dose
[22] = tested on: Avena sterilis; experiment: Herbicidal activity against Avena sterilis accession P22 assessed as induction of weed mortality
[23] = tested on: Avena sterilis; experiment: Herbicidal activity against Avena sterilis accession P15 assessed as weed survival at 4 times field recommended herbicide dose
[24] = tested on: Avena sterilis; experiment: Herbicidal activity against Avena sterilis accession P03 assessed as weed survival at 16 times field recommended herbicide dose
[25] = tested on: Avena sterilis; experiment: Herbicidal activity against Avena sterilis accession P13S assessed as weed survival at 1/16 times field recommended herbicide dose
[26] = tested on: Avena sterilis; experiment: Herbicidal activity against Avena sterilis accession P18 assessed as weed survival at 4 times field recommended herbicide dose
[27] = tested on: Avena sterilis; experiment: Herbicidal activity against Avena sterilis accession P03 assessed as weed survival at 32 times field recommended herbicide dose
[28] = tested on: Avena sterilis; experiment: Herbicidal activity against Avena sterilis accession P15 assessed as weed survival at 16 times field recommended herbicide dose
[29] = tested on: Avena sterilis; experiment: Herbicidal activity against Avena sterilis accession P14 assessed as weed survival at 1 times field recommended herbicide dose
[30] = tested on: Avena sterilis; experiment: Herbicidal activity against Avena sterilis accession P21S assessed as weed survival at 1 times field recommended herbicide dose
[31] = tested on: Avena sterilis; experiment: Herbicidal activity against Avena sterilis accession P12 assessed as weed survival at 32 times field recommended herbicide dose
[32] = tested on: Avena sterilis; experiment: Herbicidal activity against Avena sterilis accession P01 assessed as weed survival at 8 times field recommended herbicide dose
[33] = tested on: Avena sterilis; experiment: Herbicidal activity against Avena sterilis accession P16 assessed as weed survival at 32 times field recommended herbicide dose
[34] = tested on: Avena sterilis; experiment: Herbicidal activity against Avena sterilis accession P17 assessed as induction of weed mortality
[35] = tested on: Avena sterilis; experiment: Herbicidal activity against Avena sterilis accession P20 assessed as weed survival at 1 times field recommended herbicide dose
[36] = tested on: Avena sterilis; experiment: Herbicidal activity against Avena sterilis accession P20 assessed as weed survival at 32 times field recommended herbicide dose
[37] = tested on: Avena sterilis; experiment: Herbicidal activity against Avena sterilis accession P17 assessed as weed survival at 32 times field recommended herbicide dose
[38] = tested on: Avena sterilis; experiment: Herbicidal activity against Avena sterilis accession P03 assessed as induction of weed mortality
[39] = tested on: Avena sterilis; experiment: Herbicidal activity against Avena sterilis accession P09 assessed as weed survival at 8 times field recommended herbicide dose
[40] = tested on: Avena sterilis; experiment: Herbicidal activity against Avena sterilis accession P20 assessed as weed survival at 8 times field recommended herbicide dose
[41] = tested on: Avena sterilis; experiment: Herbicidal activity against Avena sterilis accession P13S assessed as weed survival at 1/8 times field recommended herbicide dose
[42] = tested on: Avena sterilis; experiment: Herbicidal activity against Avena sterilis accession P20 assessed as induction of weed mortality
[43] = tested on: Avena sterilis; experiment: Herbicidal activity against Avena sterilis accession P08 assessed as induction of weed mortality
[44] = tested on: Avena sterilis; experiment: Herbicidal activity against Avena sterilis accession P01 assessed as weed survival at 16 times field recommended herbicide dose
[45] = tested on: Avena sterilis; experiment: Herbicidal activity against Avena sterilis accession P15 assessed as weed survival at 32 times field recommended herbicide dose
[46] = tested on: Avena sterilis; experiment: Herbicidal activity against Avena sterilis accession P11 assessed as weed survival at 4 times field recommended herbicide dose
[47] = tested on: Avena sterilis; experiment: Herbicidal activity against Avena sterilis accession P13S assessed as weed survival at 1 times field recommended herbicide dose
[48] = tested on: Avena sterilis; experiment: Herbicidal activity against Avena sterilis accession P17 assessed as weed survival at 4 times field recommended herbicide dose
[49] = tested on: Avena sterilis; experiment: Herbicidal activity against Avena sterilis accession P15 assessed as induction of weed mortality
[50] = tested on: Avena sterilis; experiment: Herbicidal activity against Avena sterilis accession P15 assessed as weed survival at 8 times field recommended herbicide dose
[51] = tested on: Avena sterilis; experiment: Herbicidal activity against Avena sterilis accession P18 assessed as weed survival at 8 times field recommended herbicide dose
[52] = tested on: Avena sterilis; experiment: Herbicidal activity against Avena sterilis accession P02 assessed as weed survival at 4 times field recommended herbicide dose
[53] = tested on: Avena sterilis; experiment: Herbicidal activity against Avena sterilis accession P10S assessed as weed survival at 1/32 times field recommended herbicide dose
[54] = tested on: Avena sterilis; experiment: Herbicidal activity against Avena sterilis accession P19S assessed as weed survival at 1/32 times field recommended herbicide dose
[55] = tested on: Avena sterilis; experiment: Herbicidal activity against Avena sterilis accession P08 assessed as weed survival at 1 times field recommended herbicide dose
[56] = tested on: Avena sterilis; experiment: Herbicidal activity against Avena sterilis accession P12 assessed as weed survival at 4 times field recommended herbicide dose
[57] = tested on: Avena sterilis; experiment: Herbicidal activity against Avena sterilis accession P01 assessed as weed survival at 1 times field recommended herbicide dose
[58] = tested on: Avena sterilis; experiment: Herbicidal activity against Avena sterilis accession P14 assessed as weed survival at 32 times field recommended herbicide dose

COCc1cnc(C2=NC(C)(C(C)C)C(=O)N2)c(C(=O)O)c1 (centres undefined) [IMAZAMOX]
Survival [1]: 0%
Survival [2]: 0%
Survival [3]: 93%
Survival [4]: 0%
Survival [5]: 0%
GR50 [6]: <50 gAi/ha
Survival [7]: 0%
Survival [8]: 0%
Survival [9]: 0%
Survival [10]: 0%
GR50 [11]: 14 gAi/ha
Survival [12]: 0%
Survival [13]: 0%
Survival [14]: 100%
Survival [15]: 0%
Survival [16]: 0%
Survival [17]: 0%
Survival [18]: 100%
Survival [19]: 80%
Survival [20]: 0%
Survival [21]: 60%
GR50 [22]: <50 gAi/ha
Survival [23]: 0%
Survival [24]: 0%
Survival [25]: 80%
Survival [26]: 0%
Survival [27]: 0%
Survival [28]: 0%
Survival [29]: 0%
Survival [30]: 0%
Survival [31]: 0%
Survival [32]: 0%
Survival [33]: 0%
GR50 [34]: <50 gAi/ha
Survival [35]: 0%
Survival [36]: 0%
Survival [37]: 0%
GR50 [38]: <50 gAi/ha
Survival [39]: 0%
Survival [40]: 0%
Survival [41]: 50%
GR50 [42]: <50 gAi/ha
GR50 [43]: <50 gAi/ha
Survival [44]: 0%
Survival [45]: 0%
Survival [46]: 0%
Survival [47]: 0%
Survival [48]: 0%
GR50 [49]: <50 gAi/ha
Survival [50]: 0%
Survival [51]: 0%
Survival [52]: 0%
Survival [53]: 100%
Survival [54]: 100%
Survival [55]: 3%
Survival [56]: 0%
Survival [57]: 0%
Survival [58]: 0%

C#CCOC(=O)[C@@H](C)Oc1ccc(Oc2ncc(Cl)cc2F)cc1 [CLODINAFOP PROPARGYL]
Survival [1]: 0%
Survival [2]: 0%
Survival [3]: 97%
Survival [4]: 73%
Survival [5]: 20%
GR50 [6]: >1312 gAi/ha
Survival [7]: 20%
Survival [8]: 83%
Survival [9]: 100%
Survival [10]: 57%
GR50 [11]: 29 gAi/ha
Survival [12]: 47%
Survival [13]: 0%
Survival [14]: 80%
Survival [15]: 67%
Survival [16]: 77%
Survival [17]: 93%
Survival [18]: 97%
Survival [19]: 80%
Survival [20]: 100%
Survival [21]: 77%
GR50 [22]: 122 gAi/ha
Survival [23]: 100%
Survival [24]: 87%
Survival [25]: 70%
Survival [26]: 80%
Survival [27]: 73%
Survival [28]: 97%
Survival [29]: 97%
Survival [30]: 0%
Survival [31]: 83%
Survival [32]: 80%
Survival [33]: 0%
GR50 [34]: 283 gAi/ha
Survival [35]: 93%
Survival [36]: 27%
Survival [37]: 20%
GR50 [38]: >1312 gAi/ha
Survival [39]: 0%
Survival [40]: 60%
Survival [41]: 63%
GR50 [42]: 508 gAi/ha
GR50 [43]: >1312 gAi/ha
Survival [44]: 70%
Survival [45]: 93%
Survival [46]: 97%
Survival [47]: 0%
Survival [48]: 67%
GR50 [49]: >1312 gAi/ha
Survival [50]: 100%
Survival [51]: 73%
Survival [52]: 100%
Survival [53]: 83%
Survival [54]: 100%
Survival [55]: 100%
Survival [56]: 97%
Survival [57]: 97%
Survival [58]: 43%

COC(=O)C(C)Oc1ccc(Oc2ccc(Cl)cc2Cl)cc1 (centres undefined) [DICLOFOP-METHYL]
Survival [1]: 40%
Survival [2]: 53%
Survival [3]: 100%
Survival [4]: 100%
Survival [5]: 80%
GR50 [6]: >22740 gAi/ha
Survival [7]: 40%
Survival [8]: 63%
Survival [9]: 93%
Survival [10]: 80%
GR50 [11]: 451 gAi/ha
Survival [12]: 70%
Survival [13]: 40%
Survival [14]: 100%
Survival [15]: 33%
Survival [16]: 50%
Survival [17]: 70%
Survival [18]: 100%
Survival [19]: 97%
Survival [20]: 100%
Survival [21]: 97%
GR50 [22]: 3989 gAi/ha
Survival [23]: 100%
Survival [24]: 53%
Survival [25]: 90%
Survival [26]: 80%
Survival [27]: 40%
Survival [28]: 83%
Survival [29]: 90%
Survival [30]: 27%
Survival [31]: 63%
Survival [32]: 80%
Survival [33]: 20%
GR50 [34]: 8389 gAi/ha
Survival [35]: 100%
Survival [36]: 70%
Survival [37]: 20%
GR50 [38]: 13359 gAi/ha
Survival [39]: 73%
Survival [40]: 80%
Survival [41]: 83%
GR50 [42]: >22740 gAi/ha
GR50 [43]: 11354 gAi/ha
Survival [44]: 60%
Survival [45]: 80%
Survival [46]: 90%
Survival [47]: 40%
Survival [48]: 80%
GR50 [49]: >22740 gAi/ha
Survival [50]: 80%
Survival [51]: 60%
Survival [52]: 97%
Survival [53]: 100%
Survival [54]: 100%
Survival [55]: 97%
Survival [56]: 80%
Survival [57]: 90%
Survival [58]: 37%
